{"source": "patent US20250346602A1", "about": "“LACTAM SUBSTITUTED IMIDAZOPYRIDAZINE IL-17A MODULATORS AND USES THEREOF” (DICE ALPHA, INC., priority 2022, published 2025)", "target": "T1, IL-17A/A (Homo sapiens, UniProt Q16552)", "T1 construct": "purchased Genscript Z03228", "T1 sequence (Q16552 24-155)": "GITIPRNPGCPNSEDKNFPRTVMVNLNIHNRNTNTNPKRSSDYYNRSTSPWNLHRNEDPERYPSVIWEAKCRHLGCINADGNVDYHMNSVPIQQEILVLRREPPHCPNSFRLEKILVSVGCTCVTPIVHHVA", "assay": "IL-17A/A HEK-Blue cell assay", "type": "cell-based", "conditions": "HEK-Blue IL-17A reporter cell line (HEK 293), IL-17A/A stimulation, 20 hours incubation, SEAP read at A630", "how_it_was_run": "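HEK293 reporter cells expressing IL-17RA, IL-17RC and Act1 were given titrated compound (top final 10, 1 or 0.3 uM; 0.1% DMSO) right before IL-17A/A and incubated 20 hours. NFκB-driven SEAP in the media was read at A630 with Quanti-Blue, and IC50 came from a 4-parameter nonlinear fit.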", "data": [{"smiles": "O=C(N[C@H](c1cn2nc(CC3C[C@@H](C(F)(F)F)CNC3=O)ccc2n1)C1CCC(F)(F)CC1)c1conc1CCF", "note": "(stereo partly drawn) [Compound 110, N-((1S)-(4,4-difluorocyclohexyl)(6-(((5R)-2-oxo-5-(trifluoromethyl)piperidin-3-yl)methyl)imidazo[1,2-b]pyridazin-2-yl)methyl)-3-(2-fluoroethyl)isoxazole-4-carboxamide]", "values": [{"measurement": "IC50", "value": "100 to 1000", "unit": "nM"}]}, {"smiles": "CC(C)n1nccc1C(=O)N[C@H](c1cn2nc(CC3C[C@@H](C(F)(F)F)CNC3=O)ccc2n1)C1CCC(F)(F)CC1", "note": "(stereo partly drawn) [Compound 111, N-((1S)-(4,4-difluorocyclohexyl)(6-(((5R)-2-oxo-5-(trifluoromethyl)piperidin-3-yl)methyl)imidazo[1,2-b]pyridazin-2-yl)methyl)-1-isopropyl-1H-pyrazole-5-carboxamide]", "values": [{"measurement": "IC50", "value": "< 100", "unit": "nM"}]}, {"smiles": "CCc1nonc1C(=O)N[C@H](c1cn2nc(CC3C[C@@H](C(F)(F)F)CNC3=O)ccc2n1)C1CCC(F)(F)CC1", "note": "(stereo partly drawn) [Compound 112, N-((1S)-(4,4-difluorocyclohexyl)(6-(((5R)-2-oxo-5-(trifluoromethyl)piperidin-3-yl)methyl)imidazo[1,2-b]pyridazin-2-yl)methyl)-4-ethyl-1,2,5-oxadiazole-3-carboxamide]", "values": [{"measurement": "IC50", "value": "100 to 1000", "unit": "nM"}]}, {"smiles": "O=C(N[C@H](c1cn2nc(CC3C[C@@H](C(F)(F)F)CNC3=O)ccc2n1)C1CCC(F)(F)CC1)c1nonc1C(F)(F)F", "note": "(stereo partly drawn) [Compound 113, N-((1S)-(4,4-difluorocyclohexyl)(6-(((5R)-2-oxo-5-(trifluoromethyl)piperidin-3-yl)methyl)imidazo[1,2-b]pyridazin-2-yl)methyl)-4-(trifluoromethyl)-1,2,5-oxadiazole-3-carboxamide]", "values": [{"measurement": "IC50", "value": "100 to 1000", "unit": "nM"}]}, {"smiles": "O=C(N[C@H](c1cn2nc(CC3C[C@@H](C(F)(F)F)CNC3=O)ccc2n1)C1CCC(F)(F)CC1)c1conc1C(F)(F)F", "note": "(stereo partly drawn) [Compound 114, N-((1S)-(4,4-difluorocyclohexyl)(6-(((5R)-2-oxo-5-(trifluoromethyl)piperidin-3-yl)methyl)imidazo[1,2-b]pyridazin-2-yl)methyl)-3-(trifluoromethyl)isoxazole-4-carboxamide]", "values": [{"measurement": "IC50", "value": "100 to 1000", "unit": "nM"}]}, {"smiles": "O=C(N[C@H](c1cn2nc(CC3C[C@@H](C(F)(F)F)CNC3=O)ccc2n1)C1CCC(F)(F)CC1)c1nonc1C(F)F", "note": "(stereo partly drawn) [Compound 115, N-((1S)-(4,4-difluorocyclohexyl)(6-(((5R)-2-oxo-5-(trifluoromethyl)piperidin-3-yl)methyl)imidazo[1,2-b]pyridazin-2-yl)methyl)-4-(difluoromethyl)-1,2,5-oxadiazole-3-carboxamide]", "values": [{"measurement": "IC50", "value": "100 to 1000", "unit": "nM"}]}, {"smiles": "O=C(N[C@H](c1cn2nc(CC3C[C@@H](C(F)(F)F)CNC3=O)ccc2n1)C1CCC(F)(F)CC1)c1nonc1CC(F)(F)F", "note": "(stereo partly drawn) [Compound 116, N-((1S)-(4,4-difluorocyclohexyl)(6-(((5R)-2-oxo-5-(trifluoromethyl)piperidin-3-yl)methyl)imidazo[1,2-b]pyridazin-2-yl)methyl)-4-(2,2,2-trifluoroethyl)-1,2,5-oxadiazole-3-carboxamide]", "values": [{"measurement": "IC50", "value": "100 to 1000", "unit": "nM"}]}, {"smiles": "CC(C)c1nonc1C(=O)N[C@H](c1cn2nc(CC3C[C@@H](C(F)(F)F)CNC3=O)ccc2n1)C1CCC(F)(F)CC1", "note": "(stereo partly drawn) [Compound 117, N-((1S)-(4,4-difluorocyclohexyl)(6-(((5R)-2-oxo-5-(trifluoromethyl)piperidin-3-yl)methyl)imidazo[1,2-b]pyridazin-2-yl)methyl)-4-isopropyl-1,2,5-oxadiazole-3-carboxamide]", "values": [{"measurement": "IC50", "value": "< 100", "unit": "nM"}]}, {"smiles": "Cc1nocc1C(=O)N[C@H](c1cn2nc(CC3C[C@@H](C(F)(F)F)CNC3=O)ccc2n1)C1CCC(F)(F)CC1", "note": "(stereo partly drawn) [Compound 118, N-((1S)-(4,4-difluorocyclohexyl)(6-(((5R)-2-oxo-5-(trifluoromethyl)piperidin-3-yl)methyl)imidazo[1,2-b]pyridazin-2-yl)methyl)-3-methylisoxazole-4-carboxamide]", "values": [{"measurement": "IC50", "value": "100 to 1000", "unit": "nM"}]}, {"smiles": "O=C(N[C@H](c1cn2nc(CC3C[C@@H](C(F)(F)F)CNC3=O)ccc2n1)C1CCC(F)(F)CC1)c1conc1CF", "note": "(stereo partly drawn) [Compound 119, N-((1S)-(4,4-difluorocyclohexyl)(6-(((5R)-2-oxo-5-(trifluoromethyl)piperidin-3-yl)methyl)imidazo[1,2-b]pyridazin-2-yl)methyl)-3-(fluoromethyl)isoxazole-4-carboxamide]", "values": [{"measurement": "IC50", "value": "100 to 1000", "unit": "nM"}]}, {"smiles": "O=C(N[C@H](c1cn2nc(CC3C[C@@H](C(F)(F)F)CNC3=O)ccc2n1)C1CCC(F)(F)CC1)c1conc1CC(F)F", "note": "(stereo partly drawn) [Compound 120, N-((1S)-(4,4-difluorocyclohexyl)(6-(((5R)-2-oxo-5-(trifluoromethyl)piperidin-3-yl)methyl)imidazo[1,2-b]pyridazin-2-yl)methyl)-3-(2,2-difluoroethyl)isoxazole-4-carboxamide]", "values": [{"measurement": "IC50", "value": "100 to 1000", "unit": "nM"}]}, {"smiles": "CC(C)(F)c1nocc1C(=O)N[C@H](c1cn2nc(CC3C[C@@H](C(F)(F)F)CNC3=O)ccc2n1)C1CCC(F)(F)CC1", "note": "(stereo partly drawn) [Compound 121, N-((1S)-(4,4-difluorocyclohexyl)(6-(((5R)-2-oxo-5-(trifluoromethyl)piperidin-3-yl)methyl)imidazo[1,2-b]pyridazin-2-yl)methyl)-3-(2-fluoropropan-2-yl)isoxazole-4-carboxamide]", "values": [{"measurement": "IC50", "value": "100 to 1000", "unit": "nM"}]}, {"smiles": "O=C(N[C@H](c1cn2nc(CC3C[C@@H](C(F)(F)F)CNC3=O)ccc2n1)C1CCC(F)(F)CC1)c1conc1C1(F)CC1", "note": "(stereo partly drawn) [Compound 122, N-((1S)-(4,4-difluorocyclohexyl)(6-(((5R)-2-oxo-5-(trifluoromethyl)piperidin-3-yl)methyl)imidazo[1,2-b]pyridazin-2-yl)methyl)-3-(1-fluorocyclopropyl)isoxazole-4-carboxamide]", "values": [{"measurement": "IC50", "value": "100 to 1000", "unit": "nM"}]}, {"smiles": "CC1(c2nocc2C(=O)N[C@H](c2cn3nc(CC4C[C@@H](C(F)(F)F)CNC4=O)ccc3n2)C2CCC(F)(F)CC2)CC1", "note": "(stereo partly drawn) [Compound 123, N-((1S)-(4,4-difluorocyclohexyl)(6-(((5R)-2-oxo-5-(trifluoromethyl)piperidin-3-yl)methyl)imidazo[1,2-b]pyridazin-2-yl)methyl)-3-(1-methylcyclopropyl)isoxazole-4-carboxamide]", "values": [{"measurement": "IC50", "value": "100 to 1000", "unit": "nM"}]}, {"smiles": "O=C(N[C@H](c1cn2nc(CC3C[C@@H](C(F)(F)F)CNC3=O)ccc2n1)C1CCC(F)(F)CC1)c1conc1C1CC(F)(F)C1", "note": "(stereo partly drawn) [Compound 124, 3-(3,3-difluorocyclobutyl)-N-((1S)-(4,4-difluorocyclohexyl)(6-(((5R)-2-oxo-5-(trifluoromethyl)piperidin-3-yl)methyl)imidazo[1,2-b]pyridazin-2-yl)methyl)isoxazole-4-carboxamide]", "values": [{"measurement": "IC50", "value": "100 to 1000", "unit": "nM"}]}, {"smiles": "O=C(N[C@H](c1cn2nc(CC3C[C@@H](C(F)(F)F)CNC3=O)ccc2n1)C1CCC(F)(F)CC1)c1conc1C(F)(F)C1CC1", "note": "(stereo partly drawn) [Compound 125, 3-(cyclopropyldifluoromethyl)-N-((1S)-(4,4-difluorocyclohexyl)(6-(((5R)-2-oxo-5-(trifluoromethyl)piperidin-3-yl)methyl)imidazo[1,2-b]pyridazin-2-yl)methyl)isoxazole-4-carboxamide]", "values": [{"measurement": "IC50", "value": "100 to 1000", "unit": "nM"}]}, {"smiles": "CCCn1nccc1C(=O)N[C@H](c1cn2nc(CC3C[C@@H](C(F)(F)F)CNC3=O)ccc2n1)C1CCC(F)(F)CC1", "note": "(stereo partly drawn) [Compound 128, N-((1S)-(4,4-difluorocyclohexyl)(6-(((5R)-2-oxo-5-(trifluoromethyl)piperidin-3-yl)methyl)imidazo[1,2-b]pyridazin-2-yl)methyl)-1-propyl-1H-pyrazole-5-carboxamide]", "values": [{"measurement": "IC50", "value": "100 to 1000", "unit": "nM"}]}, {"smiles": "Cn1nc(C(F)F)cc1C(=O)N[C@H](c1cn2nc(CC3C[C@@H](C(F)(F)F)CNC3=O)ccc2n1)C1CCC(F)(F)CC1", "note": "(stereo partly drawn) [Compound 129, N-((1S)-(4,4-difluorocyclohexyl)(6-(((5R)-2-oxo-5-(trifluoromethyl)piperidin-3-yl)methyl)imidazo[1,2-b]pyridazin-2-yl)methyl)-3-(difluoromethyl)-1-methyl-1H-pyrazole-5-carboxamide]", "values": [{"measurement": "IC50", "value": "> 1000", "unit": "nM"}]}, {"smiles": "O=C(N[C@H](c1cn2nc(CC3C[C@@H](C(F)(F)F)CNC3=O)ccc2n1)C1CCC(F)(F)CC1)c1cnsn1", "note": "(stereo partly drawn) [Compound 132, N-((1S)-(4,4-difluorocyclohexyl)(6-(((5R)-2-oxo-5-(trifluoromethyl)piperidin-3-yl)methyl)imidazo[1,2-b]pyridazin-2-yl)methyl)-1,2,5-thiadiazole-3-carboxamide]", "values": [{"measurement": "IC50", "value": "> 1000", "unit": "nM"}]}, {"smiles": "Cn1c(C#N)ccc1C(=O)N[C@H](c1cn2nc(CC3C[C@@H](C(F)(F)F)CNC3=O)ccc2n1)C1CCC(F)(F)CC1", "note": "(stereo partly drawn) [Compound 133, 5-cyano-N-((1S)-(4,4-difluorocyclohexyl)(6-(((5R)-2-oxo-5-(trifluoromethyl)piperidin-3-yl)methyl)imidazo[1,2-b]pyridazin-2-yl)methyl)-1-methyl-1H-pyrrole-2-carboxamide]", "values": [{"measurement": "IC50", "value": "100 to 1000", "unit": "nM"}]}, {"smiles": "N#Cc1cc(C(=O)N[C@H](c2cn3nc(CC4C[C@@H](C(F)(F)F)CNC4=O)ccc3n2)C2CCC(F)(F)CC2)cs1", "note": "(stereo partly drawn) [Compound 134, 5-cyano-N-((1S)-(4,4-difluorocyclohexyl)(6-(((5R)-2-oxo-5-(trifluoromethyl)piperidin-3-yl)methyl)imidazo[1,2-b]pyridazin-2-yl)methyl)thiophene-3-carboxamide]", "values": [{"measurement": "IC50", "value": "100 to 1000", "unit": "nM"}]}, {"smiles": "Cc1n[nH]cc1C(=O)N[C@H](c1cn2nc(CC3C[C@@H](C(F)(F)F)CNC3=O)ccc2n1)C1CCC(F)(F)CC1", "note": "(stereo partly drawn) [Compound 135, N-((1S)-(4,4-difluorocyclohexyl)(6-(((5R)-2-oxo-5-(trifluoromethyl)piperidin-3-yl)methyl)imidazo[1,2-b]pyridazin-2-yl)methyl)-3-methyl-1H-pyrazole-4-carboxamide]", "values": [{"measurement": "IC50", "value": "> 1000", "unit": "nM"}]}, {"smiles": "O=C(N[C@H](c1cn2nc(CC3C[C@@H](C(F)(F)F)CNC3=O)ccc2n1)C1CCC(F)(F)CC1)c1conc1C1CC1", "note": "(stereo partly drawn) [Compound 136, 3-cyclopropyl-N-((1S)-(4,4-difluorocyclohexyl)(6-(((5R)-2-oxo-5-(trifluoromethyl)piperidin-3-yl)methyl)imidazo[1,2-b]pyridazin-2-yl)methyl)isoxazole-4-carboxamide]", "values": [{"measurement": "IC50", "value": "100 to 1000", "unit": "nM"}]}]}
